Experimental data published in article PMC10584170, “Machine learning-based phenotypic imaging to characterise the targetable biology of Plasmodium falciparum male gametocytes for the development of transmission-blocking antimalarials” (PLOS Pathogens, 2023).

Tests used:
[1] = tested on: P. falciparum female gametocytes; assay: P. falciparum Dual Gamete Formation Assay (PfDGFA), female readout (Pfs25-positive female gametes); type: cell-based, Plasmodium falciparum NF54; conditions: for % inhibition female (individual replicates) R1: replicate R1; for % inhibition female (individual replicates) R3: replicate R3; for % inhibition female (individual replicates) R4: replicate R4; for Average inhibition female (%): average of replicates; for HitlevelF: hits selected on >50% inhibition in the female readout across replicates
In short: (§1)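 Read-outs are automated image counts of exflagellation centres (brightfield, 10 frames over 1 s) and Pfs25-positive female gametes (Cy3 fluorescence).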

[2] = tested on: P. falciparum male gametocytes; assay: P. falciparum Dual Gamete Formation Assay (PfDGFA), male readout (exflagellation); type: cell-based, Plasmodium falciparum NF54; conditions: for % inhibition male (individual replicates) R1: replicate R1; for % inhibition male (individual replicates) R4: replicate R4; for Average inhibition male (%): average of replicates; for % inhibition male (individual replicates) R3: replicate R3; for HitlevelM: hits selected on >50% inhibition in the male readout across replicates; for Activity: hit = >50% inhibition in male or female readout in at least 3 replicates, 0 = no class assigned
In short: as §1

[3] = PfDGFA at 2µM, 24h preincubation with gametocytes prior to induction of gametogenesis
[4] = PfDGFA at 2µM, 24h preincubation
[5] = 2µM, 24h preincubation with gametocytes prior to induction of gametogenesis

Row | SMILES | % inhibition female (individual replicates) R1 [1, 3] | % inhibition female (individual replicates) R3 [1, 3] | % inhibition female (individual replicates) R4 [1, 3] | Average inhibition female (%) [1, 4] | % inhibition male (individual replicates) R1 [2, 3] | % inhibition male (individual replicates) R4 [2, 3] | Average inhibition male (%) [2, 4] | Average inhibition female (%) [1, 5] | % inhibition female (individual replicates) R1 [1, 5] | % inhibition female (individual replicates) R3 [1, 5] | % inhibition female (individual replicates) R4 [1, 5] | HitlevelF ([1]; 2µM, 24h preincubation) | Average inhibition male (%) [2, 5] | % inhibition male (individual replicates) R1 [2, 5] | % inhibition male (individual replicates) R3 [2, 5] | % inhibition male (individual replicates) R4 [2, 5] | HitlevelM ([2]; 2µM, 24h preincubation) | Activity [2, 4] | % inhibition male (individual replicates) R3 [2, 3]
1 | COc1ccc(CNC(=O)c2cnc3cc(-c4c(C)noc4C)ccc3c2Nc2ccccc2C(C)(C)C)cc1.Cl [TCMDC-136367] | -1.1% | -0.6% | 13.4% | 2.7% | -0.3% | -17.2% | -9.5% |  |  |  |  |  |  |  |  |  |  |  | 
2 | COc1cc(Br)c(S(=O)(=O)n2cc(CN3CCC(N)CC3)c3cc(Cl)ccc32)cc1OC.O=C(O)C(F)(F)F [TCMDC-136384] |  |  |  |  |  |  |  | 13.1% | 17.7% | 22.3% | -2.1% | 0 | 17.6% | 5.7% | -10.3% | 29.6% | 0 | 0 | 
3 | COc1cc(C(=O)N2CCN(C(C)C)CC2)ccc1CN(C)CCCCN1CCN(c2cccc(Cl)c2Cl)CC1.Cl [TCMDC-136506] |  |  |  |  |  |  |  | 13.2% | 17.9% | 17.6% | 12.7% | 0 | 24.1% | 21.0% | -5.5% | 30.9% | 1 | 0 | 
4 | CN(C)Cc1c(O)ccc2[nH]c(-c3cccc(F)c3)nc12 [TCMDC-136535] | 14.3% | -20.0% | -2.1% | -3.2% | -6.0% | 8.9% | -3.8% |  |  |  |  |  |  |  |  |  |  |  | -26.3%
5 | C[C@@H](CNc1ccnc(Nc2ccc3[nH]c(=O)[nH]c3c2)n1)c1ccccc1 [TCMDC-136803] | 0.6% | -4.3% | 9.5% | 0.458% | -12.9% | -10.1% | -9.4% |  |  |  |  |  |  |  |  |  |  |  | 
6 | Cc1cc(N2CCCN(CC3CCCCC3)CC2)nc(Nc2ccc(Br)cc2)n1 [TCMDC-137133] |  |  |  |  |  |  |  | 14.4% | 13.7% | 2.2% | 35.3% | 0 | -4.7% | -4.0% | -2.0% | -6.5% | 0 | 0 | 
7 | CCOc1cc(Cc2cnc(N)nc2N)cc(OCC)c1O [TCMDC-137181] | -0.02% | 1.9% | -15.6% | -3.9% | 23.6% | 11.2% | 22.7% |  |  |  |  |  |  |  |  |  |  |  | 21.9%
8 | CNC(=O)C(NC(=O)c1ccccc1C(=O)OC)c1ccccc1 (stereo not drawn) [TCMDC-137226] | 18.3% | -7.8% | -6.5% | 2.2% | 12.9% | -18.5% | -3.7% |  |  |  |  |  |  |  |  |  |  |  | -28.2%
9 | COc1cc(Cc2cnc(N)nc2N)cc(OCCCCC2SC(=O)NC2=O)c1Br (stereo not drawn) [TCMDC-137240] | 12.9% | 1.7% | -5.0% | 2.6% | 22.0% | -19.8% | 3.4% |  |  |  |  |  |  |  |  |  |  |  | 3.4%
10 | Cc1nc2nc(N)nc(N)c2c(C)c1Cc1ccccc1Br.Cl [TCMDC-137242] | 10.1% | -11.3% | 2.1% | -2.4% | 34.5% | -12.5% | 16.6% |  |  |  |  |  |  |  |  |  |  |  | 1.0%
11 | Cc1c(Cc2ccccc2Br)cnc2nc(N)nc(N)c12.Cl [TCMDC-137244] | 1.3% | -18.4% | -3.4% | -6.0% | 13.7% | 3.9% | 10.5% |  |  |  |  |  |  |  |  |  |  |  | 18.7%
12 | CCC(CC)n1c(C)cc2c3c(N)nc(N)nc3ccc21 [TCMDC-137283] |  |  |  |  |  |  |  | 4.2% | -6.1% | 8.3% | 19.7% | 0 | 25.7% | 19.3% | 21.9% | 21.2% | 0 | 0 | 
13 | CCCc1cc(Cc2cnc(N)nc2N)cc(CCC)c1OCCCCC(=O)O [TCMDC-137293] |  |  |  |  |  |  |  | 8.1% | 3.0% | -4.5% | 42.6% | 0 | -0.757% | 18.6% | 1.6% | -35.8% | 0 | 0 | 
14 | CCN(CC)S(=O)(=O)n1ncc2c3c(N)nc(N)nc3ccc21.Cl [TCMDC-137302] | 5.9% | -12.1% | -12.9% | -8.3% | 16.7% | -41.8% | 0.1% |  |  |  |  |  |  |  |  |  |  |  | -8.5%
15 | O=C1O[C@H](c2ccccc2)[C@H](c2ccccc2)N(C(=O)OCc2ccccc2)[C@H]1Cc1ccccc1C1CCCC1 [TCMDC-137303] |  |  |  |  |  |  |  | 4.6% | 6.2% | -0.36% | 6.0% | 0 | -2.7% | 16.1% |  | -23.7% | 0 | 0 | 
